Test results from patent US5962314A, “Calcium receptor-active molecules” (priority 1997, dated 1999).
Entries after “also recorded” stand apart in the source; their conditions may differ. Where two headings read alike, the source gives them in different places.

Key:
Assay type in all cases: cell-based
[1] = target: T1, parathyroid cell calcium receptor (Bos taurus, UniProt P35384); test: cell-based
T1 sequence (P35384 20-1085): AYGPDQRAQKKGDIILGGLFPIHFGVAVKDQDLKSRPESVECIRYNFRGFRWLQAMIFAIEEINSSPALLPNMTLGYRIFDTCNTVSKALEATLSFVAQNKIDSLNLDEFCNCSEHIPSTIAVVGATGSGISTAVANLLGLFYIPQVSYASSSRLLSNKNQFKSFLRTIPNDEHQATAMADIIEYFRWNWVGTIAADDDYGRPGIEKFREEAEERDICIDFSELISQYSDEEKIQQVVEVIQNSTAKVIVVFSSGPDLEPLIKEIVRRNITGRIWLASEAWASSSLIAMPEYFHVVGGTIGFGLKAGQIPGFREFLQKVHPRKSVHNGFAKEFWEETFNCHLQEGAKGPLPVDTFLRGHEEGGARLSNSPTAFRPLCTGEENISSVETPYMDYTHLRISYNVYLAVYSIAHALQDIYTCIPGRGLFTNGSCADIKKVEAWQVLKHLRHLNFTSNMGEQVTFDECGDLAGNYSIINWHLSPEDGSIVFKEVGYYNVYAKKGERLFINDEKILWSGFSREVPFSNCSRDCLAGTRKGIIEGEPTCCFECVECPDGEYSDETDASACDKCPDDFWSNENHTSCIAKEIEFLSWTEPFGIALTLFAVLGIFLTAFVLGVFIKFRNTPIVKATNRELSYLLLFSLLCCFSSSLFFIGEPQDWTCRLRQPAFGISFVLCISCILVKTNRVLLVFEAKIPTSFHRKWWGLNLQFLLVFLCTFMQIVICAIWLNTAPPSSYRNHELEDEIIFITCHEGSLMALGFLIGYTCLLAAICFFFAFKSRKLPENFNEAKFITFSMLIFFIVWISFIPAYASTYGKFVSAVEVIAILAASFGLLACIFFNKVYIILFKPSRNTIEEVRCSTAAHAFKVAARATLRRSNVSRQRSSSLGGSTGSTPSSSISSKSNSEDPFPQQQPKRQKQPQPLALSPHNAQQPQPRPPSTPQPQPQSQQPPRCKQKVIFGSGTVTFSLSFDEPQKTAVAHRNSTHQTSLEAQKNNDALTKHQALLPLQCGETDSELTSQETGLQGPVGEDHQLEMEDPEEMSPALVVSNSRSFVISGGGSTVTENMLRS
Procedure: For example,. bovine parathyroid cells loaded with fura-2 are initially suspended in buffer containing 0.5 mM CaCl2. A test substance is added to the cuvette in a small volume (5-15 μl) and changes in the fluorescence signal are measured. Cumulative increases in the concentration of the test substance are made in the cuvette until some predetermined concentration is achieved or no further changes in fluorescence are noted.
Human parathyroid glands, were obtained from patients undergoing surgical removal of parathyroid tissue for primary or uremic hyperparathyroidism (uremic HPT), and were treated similarly to bovine tissue.
The cells were then pelleted, resuspended in the same buffer, but lacking the ester, and incubated a further 15 minutes at 37° C. The cells were subsequently washed twice with PCB containing 0.5 mM CaCl2 and 0.5% BSA and maintained at room temperature (about 20° C.). Immediately before use, the cells were diluted five-fold with prewarmed 0.5 mM CaCl2 -PCB to obtain a final BSA concentration of 0.1%. The concentration of cells in the cuvette used for fluorescence recording was 1-2×10^6 /ml.
The fluorescence of indicator-loaded cells was measured at 37° C. in a spectrofluorimeter (Biomedical Instrumentation Group, University of Pennsylvania, Philadelphia, Pa.) equipped with a thermostated cuvette holder and magnetic stirrer using excitation and emission wavelengths of 340 and 510 nm, respectively. […] Leakage of dye is dependent on temperature and most occurs within the first 2 minutes after warming the cells in the cuvette. Dye leakage increases only very slowly thereafter. To correct the calibration for dye leakage, cells were placed in the cuvette and stirred at 37° C. for 2-3 minutes. The cell suspension was then removed, the cells pelleted, and the supernatant returned to a clean cuvette. […] This estimate was subtracted from the apparent Fmin.

[2] = target: T2, bovine parathyroid cell calcium receptor (Bos taurus, UniProt P35384); test: Cl- current in Xenopus oocytes expressing BoPCaR 1; settings: for effect on Cl- current: BoPCaR 1-injected oocytes; for effect in control oocytes: uninjected, water or rat liver mRNA oocytes
T2 construct: expressed in transfected cells; host or cells: Xenopus laevis oocytes injected with BoPCaR 1 cRNA
T2 sequence (P35384 20-1085): T1 sequence (P35384 20-1085)
Procedure: Several pharmacological and biochemical criteria were used to identify this clone as encoding a bona fide bovine parathyroid Ca^2+ receptor. […] These responses increased markedly over a period of one to four days after injection of the eggs with cRNA prepared from the BoPCaR 1 cDNA. Furthermore, the ranges of the concentrations of the two cations eliciting this response were very similar to those shown previously to act on bovine parathyroid cells in vitro.
Xenopus oocytes were injected with BoPCaR 1, the 5.3 Kb cDNA encoding a bovine parathyroid cell calcium receptor as described in Example 25. After two to three days, Cl^- currents were examined in the oocytes using a two-electrode voltage clamp.
Xenopus oocytes were injected with BoPCaR 1 as described in Example 25. After two to three days, Cl^- currents were examined in the oocytes using two electrode voltage clamp.

[3] = target: T3, human parathyroid cell calcium receptor (Homo sapiens, UniProt P41180); test: Cl- current in Xenopus oocytes expressing human parathyroid cell calcium receptor; settings: for effect on Cl- current: 3 to 30 μM, 0.3 mM extracellular Ca2+
T3 construct: T7 cRNA injected into Xenopus oocytes
T3 sequence (P41180 with tags, fused parts or gaps INS536PLTFVLSVLQ/Q926R/E1011Q): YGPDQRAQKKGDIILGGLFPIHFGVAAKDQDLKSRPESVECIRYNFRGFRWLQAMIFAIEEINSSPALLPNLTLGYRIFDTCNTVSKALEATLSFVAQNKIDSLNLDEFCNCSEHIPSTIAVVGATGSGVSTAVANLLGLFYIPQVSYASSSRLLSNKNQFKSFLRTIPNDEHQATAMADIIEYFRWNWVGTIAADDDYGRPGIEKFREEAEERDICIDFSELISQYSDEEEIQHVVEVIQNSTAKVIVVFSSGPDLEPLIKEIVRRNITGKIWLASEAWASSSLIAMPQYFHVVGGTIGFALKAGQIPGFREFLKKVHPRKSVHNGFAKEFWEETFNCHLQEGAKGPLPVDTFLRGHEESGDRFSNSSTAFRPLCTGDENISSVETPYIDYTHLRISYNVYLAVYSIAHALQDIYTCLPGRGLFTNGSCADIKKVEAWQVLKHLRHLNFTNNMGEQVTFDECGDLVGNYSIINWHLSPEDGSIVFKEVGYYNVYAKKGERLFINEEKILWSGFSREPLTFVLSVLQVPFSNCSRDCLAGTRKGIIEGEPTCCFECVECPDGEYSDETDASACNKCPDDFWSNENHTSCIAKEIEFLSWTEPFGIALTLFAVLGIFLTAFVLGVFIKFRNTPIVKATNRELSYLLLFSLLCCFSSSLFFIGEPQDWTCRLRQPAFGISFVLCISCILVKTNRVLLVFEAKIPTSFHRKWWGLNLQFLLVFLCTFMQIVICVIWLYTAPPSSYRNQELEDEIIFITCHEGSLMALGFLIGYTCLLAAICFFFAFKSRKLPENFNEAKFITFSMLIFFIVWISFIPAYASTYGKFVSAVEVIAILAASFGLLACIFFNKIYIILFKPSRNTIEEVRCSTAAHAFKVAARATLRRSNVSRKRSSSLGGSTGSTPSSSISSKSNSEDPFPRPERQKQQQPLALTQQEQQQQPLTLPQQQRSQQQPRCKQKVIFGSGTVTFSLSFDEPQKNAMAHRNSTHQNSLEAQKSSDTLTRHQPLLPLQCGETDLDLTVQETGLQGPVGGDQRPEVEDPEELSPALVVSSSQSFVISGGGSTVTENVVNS
Procedure: Representative cDNA inserts for both size classes were subcloned into the plasmid vector pBluescript SK. Linearization followed by in vitro transcription using T7 RNA polymerase produced cRNA transcripts. The cRNA transcripts were injected into Xenopus oocytes (150 ng/μl RNA; 50 nl/oocyte) for functional analysis. Following incubation periods of 2-4 days, the oocytes were assayed for the presence of functional calcium receptors. Both clone types gave rise to functional calcium receptors as assessed by the stimulation of calcium-activated chloride currents upon addition of appropriate calcium receptor agonists. […] Thus, both clones encode a functional, human parathyroid cell calcium receptor.
Xenopus oocytes were injected with pHuPCaR 5.2, the 5.2 Kb cDNA encoding a parathyroid cell calcium receptor derived from a human parathyroid cell adenoma. (See Example 27.) After two to three days, Cl^- currents were measured in the oocytes using a two-electrode voltage clamp.

Row | SMILES | effect on [Ca2+]i [1] | effect on [Ca2+]i ([1]; 10 μM, Ca2+-free) | effect on [Ca2+]i ([1]; 100 μM, Ca2+-free) | effect on extracellular Ca2+-evoked increases in [Ca2+]i ([1]; neomycin B 30 μM / maximally effective concentration) | effect on intracellular Ca2+ ([1]; neomycin B 30 μM, protamine 1 μg/ml) | effect on Cl- current [2] | effective concentration range, Cl- current ([2]; BoPCaR 1 oocytes) [µM] | effect on Cl- current in absence of extracellular Ca2+ [2] | effect in control oocytes [2] | effect on Cl- current [3] | response in absence of extracellular Ca2+ [3] | effect on response to extracellular Ca2+ [1] | effect on [Ca2+]i in absence of extracellular Ca2+ ([1]; Ca2+-free buffer) | effect on extracellular Ca2+ concentration-response curve [2] | activation of oocyte-expressed receptor [3] | effect on extracellular Ca2+ concentration-response curve [3]
1 | NC[C@@H]1O[C@H](O[C@H]2[C@@H](O)[C@H](O[C@@H]3[C@@H](O)[C@H](N)C[C@H](N)[C@H]3O[C@H]3O[C@H](CN)[C@@H](O)[C@H](O)[C@H]3N)O[C@@H]2CO)[C@H](N)[C@@H](O)[C@@H]1O [Neomycin] | evoked rapid and transient increases in [Ca^2+ ]i | did not by itself cause an increase in [Ca^2+ ]i | evoked a rapid and transient increase in [Ca^2+ ]i | blocks transient, but does not block steady-state increases in [Ca^2+ ]i; also recorded: blocked transient, but not steady-state increases in [Ca^2+ ]i | mobilization of intracellular Ca^2+ | large inward currents | 20 to 100 | persist despite removal of extracellular Ca^2+ |  |  |  |  |  |  |  | 
2 | NCCCNCCCCNCCCNCCCNCCCNC(=O)Cc1c[nH]c2ccccc12 [NPS 019] |  |  |  |  |  | caused oscillatory increases in the Cl^- |  | persisted in the absence of extracellular Ca^2+ | Neither NPS 017 nor NPS 019 elicited changes in Cl^- | evoked increases in the Cl^- | persisted |  |  |  |  | 
3 | COc1cccc([C@@H](C)NCCCc2ccccc2Cl)c1 [NPS R-568, (R)-(+)-N-[3-(2-chlorophenyl)propyl]-α-methyl-3-methoxybenzylamine] | evokes increases in [Ca^2+ ]i in bovine parathyroid cells in a stereospecific manner |  |  |  |  | caused increases in the Cl^- |  | abolished in the absence of extracellular Ca^2+ | failed to evoke responses | evoked increases in the Cl^- | abolished | shifts the concentration-response curve for extracellular Ca^2+; also recorded: shift to the left in the concentration-response curve for extracellular Ca^2+ | fails to evoke increases in [Ca^2+ ]i; also recorded: do not cause the mobilization of intracellular Ca^2+ | potentiated the responses to submaximal concentrations of extracellular Ca^2+; also recorded: shift the extracellular Ca^2+ concentration-response curve to the left | activated the oocyte-expressed receptor at about the same concentrations | shifted the concentration-response curve to the left
